Laboratory results: PMC10331583, “Control of fibrosis with enhanced safety via asymmetric inhibition of prolyl‐tRNA synthetase 1” (EMBO Molecular Medicine, 2023)
Where a chain is given by its changes, count along the chain named. “And” between values parts separate entries of the source, which are not always exact repeats. Identical values can stand only once. “Also recorded” adds a separate entry of the source.

Key:
PARS1 WT = target: T1, PARS1 WT (Homo sapiens, UniProt P07814); test: Microscale thermophoresis (MST), PARS1 WT; type: binding; settings: for Fraction bound: single replicates
T1 construct: His‐PARS1 (1001–1,512 aa); made in house; host or cells: Escherichia coli
T1 sequence (P07814 1001-1512 limits assumed): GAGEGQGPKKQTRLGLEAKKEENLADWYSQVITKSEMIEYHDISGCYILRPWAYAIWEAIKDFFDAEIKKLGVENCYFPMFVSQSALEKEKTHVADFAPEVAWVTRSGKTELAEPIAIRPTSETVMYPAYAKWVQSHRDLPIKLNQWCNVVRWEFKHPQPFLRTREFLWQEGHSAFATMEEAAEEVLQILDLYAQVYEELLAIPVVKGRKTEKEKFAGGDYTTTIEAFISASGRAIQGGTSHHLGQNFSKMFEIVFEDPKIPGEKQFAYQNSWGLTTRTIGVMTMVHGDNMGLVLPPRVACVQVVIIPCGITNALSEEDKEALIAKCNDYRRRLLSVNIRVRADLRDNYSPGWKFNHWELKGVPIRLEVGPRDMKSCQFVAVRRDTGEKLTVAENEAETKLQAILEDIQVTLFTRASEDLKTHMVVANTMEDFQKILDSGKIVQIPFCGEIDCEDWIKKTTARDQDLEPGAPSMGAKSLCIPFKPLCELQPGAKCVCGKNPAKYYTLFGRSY

[1] = target: T2, PARS1 F1097A/E1123A/R1152L (FA/EA/RL) mutant (Homo sapiens, UniProt P07814, E1123A/F1097A/R1152L); test: Microscale thermophoresis (MST), PARS1 mutant; type: binding; settings: for Fraction bound: single replicates
T2 construct: His‐PARS1 (1001–1,512 aa); made in house; host or cells: Escherichia coli
T2 sequence (P07814 1001-1512 F1097A/E1123A/R1152L): T1 sequence (P07814 1001-1512 limits assumed) with F97A, E123A, R152L

His‐PARS1 = target: T3, His‐PARS1 (Homo sapiens, UniProt P07814); test: Surface plasmon resonance (SPR); type: binding
T3 construct: His‐PARS1 (1001–1,512 aa); made in house; host or cells: Escherichia coli
T3 sequence (P07814 1001-1512 limits assumed): T1 sequence (P07814 1001-1512 limits assumed)

PARS1 = target: T4, PARS1 (Homo sapiens, UniProt P07814); test: In vitro prolylation assay; type: biochemical
T4 construct: His‐PARS1 (1001–1,512 aa); His; made in house; host or cells: Escherichia coli
T4 sequence (P07814 1001-1512 limits assumed): T1 sequence (P07814 1001-1512 limits assumed)
Description: The enzyme reaction was initiated by the addition of 100 nM purified His‐PARS1 (1001–1,512 aa). After 5 min, the reaction mixture was quenched on Whatman filter paper presoaked with 5% trichloroacetic acid (TCA). The filter papers were washed three times in 5% TCA for 10 min at 4°C and once in 100% ethanol for 10 min. The filter papers were dried, and radioactivity was quantified using liquid scintillation counter (LSC).
After 1 h, the reaction mixture was quenched on Whatman filter paper presoaked with 5% TCA. The filter papers were washed three times in 5% TCA for 10 min at 4°C and once in 100% ethanol for 10 min. The filter papers were dried, and radioactivity was quantified using LSC.

With `O[C@H]1CCCN[C@@H]1CCCn1cnc2c(Cl)c(Cl)ccc21` [DWN12088] the “Fraction bound, average” value (PARS1 WT; Dose 30.5176 nM) was -0.2054, the Fraction bound (PARS1 WT; Dose 30.5176 nM) was -0.1847 and -0.2552 and -0.1762 and the “Fraction bound, average” value (PARS1 WT; Dose 61.0352 nM) was -0.1331. For the same compound, the Fraction bound (PARS1 WT; Dose 61.0352 nM) was -0.1271 and -0.1077 and -0.1644, the “Fraction bound, average” value (PARS1 WT; Dose 122.07 nM) was -0.0578 and the Fraction bound (PARS1 WT; Dose 122.07 nM) was 0.0166 and -0.0399 and -0.1500. For the same compound, the “Fraction bound, average” value (PARS1 WT; Dose 244.141 nM) was 0.0543, the Fraction bound (PARS1 WT; Dose 244.141 nM) was -0.0356 and 0.0851 and 0.1134 and the “Fraction bound, average” value (PARS1 WT; Dose 488.281 nM) was -0.0068. For the same compound, the Fraction bound (PARS1 WT; Dose 488.281 nM) was 0.0147 and -0.0499 and 0.0148, the “Fraction bound, average” value (PARS1 WT; Dose 976.562 nM) was 0.1887 and the Fraction bound (PARS1 WT; Dose 976.562 nM) was 0.1745 and 0.1271 and 0.2645. For the same compound, the “Fraction bound, average” value (PARS1 WT; Dose 1953.12 nM) was 0.3166, the Fraction bound (PARS1 WT; Dose 1953.12 nM) was 0.2796 and 0.3408 and 0.3294 and the “Fraction bound, average” value (PARS1 WT; Dose 3906.25 nM) was 0.1823. The Fraction bound (PARS1 WT; Dose 3906.25 nM) was 0.1409 and 0.1539 and 0.2519, the “Fraction bound, average” value (PARS1 WT; Dose 7812.5 nM) was 0.3895 and the Fraction bound (PARS1 WT; Dose 7812.5 nM) was 0.3262 and 0.4199 and 0.4224. The “Fraction bound, average” value (PARS1 WT; Dose 15625 nM) was 0.4633, the Fraction bound (PARS1 WT; Dose 15625 nM) was 0.4748 and 0.4733 and 0.4418 and the “Fraction bound, average” value (PARS1 WT; Dose 31250 nM) was 0.5523. The Fraction bound (PARS1 WT; Dose 31250 nM) was 0.4690 and 0.5423 and 0.6454, the “Fraction bound, average” value (PARS1 WT; Dose 62500 nM) was 0.5522 and the Fraction bound (PARS1 WT; Dose 62500 nM) was 0.5673 and 0.5892 and 0.5000. For the same compound, the “Fraction bound, average” value (PARS1 WT; Dose 125000 nM) was 0.7606, the Fraction bound (PARS1 WT; Dose 125000 nM) was 0.7942 and 0.7665 and 0.7210 and the “Fraction bound, average” value (PARS1 WT; Dose 250000 nM) was 0.9107. For the same compound, the Fraction bound (PARS1 WT; Dose 250000 nM) was 0.9397 and 0.8612 and 0.9313, the “Fraction bound, average” value (PARS1 WT; Dose 500000 nM) was 1.0322 and the Fraction bound (PARS1 WT; Dose 500000 nM) was 1.1218 and 1.1050 and 0.8698. The “Fraction bound, average” value (PARS1 WT; Dose 1000000 nM) was 1.1170, the Fraction bound (PARS1 WT; Dose 1000000 nM) was 1.1447 and 1.1049 and 1.1015 and the Kd (PARS1 WT; Kd (Fit Results), His-PARS1 WT, doses of the sheet in nM) was 20500 nM. It also gave a Kd (PARS1 WT; Kd, MST, in the presence of ATP) of 20000 nM, a Kd (PARS1 WT; Kd, MST, in the presence of proline 30 μM) of 79000 nM and a Kd (PARS1 WT; Kd, MST, in the presence of proline 120 μM) of 108000 nM. For the same compound, the Kd (PARS1 WT; Kd, WT, 5 mM ATP, mean ± SD, unit inferred) was 20500 ± 8580 nM, the “Fraction bound, average” value ([1]; Dose 30.5176 nM) was -0.2196 and the Fraction bound ([1]; Dose 30.5176 nM) was -0.0531 and -0.3613 and -0.2444. For the same compound, the “Fraction bound, average” value ([1]; Dose 61.0352 nM) was -0.1437, the Fraction bound ([1]; Dose 61.0352 nM) was -0.0707 and -0.1506 and -0.2099 and the “Fraction bound, average” value ([1]; Dose 122.07 nM) was 0.0563. The Fraction bound ([1]; Dose 122.07 nM) was 0.1029 and 0.0530 and 0.0131, the “Fraction bound, average” value ([1]; Dose 244.141 nM) was 0.2244 and the Fraction bound ([1]; Dose 244.141 nM) was 0.3322 and 0.1837 and 0.1572. The “Fraction bound, average” value ([1]; Dose 488.281 nM) was -0.0768, the Fraction bound ([1]; Dose 488.281 nM) was -0.1204 and -0.1742 and 0.0641 and the “Fraction bound, average” value ([1]; Dose 976.562 nM) was -0.0355. The Fraction bound ([1]; Dose 976.562 nM) was -0.2804 and 0.0014 and 0.1724, the “Fraction bound, average” value ([1]; Dose 1953.12 nM) was 0.1140 and the Fraction bound ([1]; Dose 1953.12 nM) was 0.1616 and 0.0279 and 0.1524. The “Fraction bound, average” value ([1]; Dose 3906.25 nM) was 0.1368, the Fraction bound ([1]; Dose 3906.25 nM) was 8.74e-5 and 0.2618 and 0.1487 and the “Fraction bound, average” value ([1]; Dose 7812.5 nM) was -0.0582. For the same compound, the Fraction bound ([1]; Dose 7812.5 nM) was -0.2477 and -0.0355 and 0.1087, the “Fraction bound, average” value ([1]; Dose 15625 nM) was 0.2874 and the Fraction bound ([1]; Dose 15625 nM) was 0.1991 and 0.1856 and 0.4774. The “Fraction bound, average” value ([1]; Dose 31250 nM) was 0.2894, the Fraction bound ([1]; Dose 31250 nM) was 0.2431 and 0.4002 and 0.2248 and the “Fraction bound, average” value ([1]; Dose 62500 nM) was 0.2591. For the same compound, the Fraction bound ([1]; Dose 62500 nM) was 0.5108 and 0.3402 and -0.0738, the “Fraction bound, average” value ([1]; Dose 125000 nM) was 0.4857 and the Fraction bound ([1]; Dose 125000 nM) was 0.4645 and 0.6139 and 0.3786. For the same compound, the “Fraction bound, average” value ([1]; Dose 250000 nM) was 0.6790, the Fraction bound ([1]; Dose 250000 nM) was 0.6147 and 0.6365 and 0.7858 and the “Fraction bound, average” value ([1]; Dose 500000 nM) was 0.8538. For the same compound, the Fraction bound ([1]; Dose 500000 nM) was 0.9212 and 0.7677 and 0.8725, the “Fraction bound, average” value ([1]; Dose 1000000 nM) was 0.8907 and the Fraction bound ([1]; Dose 1000000 nM) was 0.9649 and 0.9924 and 0.7150. The Kd ([1]; Kd (Fit Results), His-PARS1 FA/EA/RL, doses of the sheet in nM) was 114000 nM, the Kd ([1]; Kd, MT (FA/EA/RL), 5 mM ATP, mean ± SD, unit inferred) was 114000 ± 57400 nM and the Kd (His‐PARS1; KD, + ATP (1 mM)) was 31.1 µM. For the same compound, the Kd (His‐PARS1; KD, - ATP) was > 300 µM, the Kd (His‐PARS1; Kd, SPR, in the presence of ATP) was 31 µM and the IC50 (PARS1; IC50, 1 μM Pro, 5 mM ATP) was 0.0761 µM. For the same compound, the IC50 (PARS1; IC50, 10 μM Pro, 5 mM ATP) was 0.397 µM, the IC50 (PARS1; IC50, 100 μM Pro, 2.5 mM ATP) was 5.94 µM and the IC50 (PARS1; IC50, 100 μM Pro, 5 mM ATP) was 6.46 µM. The IC50 (PARS1; IC50, 100 μM Pro, 10 mM ATP) was 3 µM and the “mode of PARS1 inhibition” value (PARS1; IC50 at different proline and ATP concentrations) was “proline‐competitive and ATP‐uncompetitive; also recorded: competitive inhibitor for proline, and a mixed or uncompetitive inhibitor for ATP”.
